This note sets out measurements from ChEMBL document CHEMBL5625161, “Pharmacological activity and mechanism of pyrazines” (Eur J Med Chem, 2023).

In one data set the test system is A549. Put plainly: Cytotoxicity against human A549 cells assessed as reduction in cell growth measured after 24 hrs by MTT assay. In kind it is functional, cell-based. Conditions: A549, 24 h.
Another data set relates to DU-145. Put plainly: Antiproliferative activity against human DU-145 cells assessed as reduction in cell growth incubated for 48 hrs by CCK-8 assay. It is filed as functional, cell-based. The following applies: DU-145, 48 h.
Data set [1] relates to MCF7. Briefly: Antiproliferative activity against human MCF7 cells assessed as reduction in cell growth incubated for 48 hrs by CCK-8 assay. It is filed as functional, cell-based. Conditions: MCF7, 48 h.
A further data set relates to NCI-H460. Briefly: Antiproliferative activity against human NCI-H460 cells assessed as reduction in cell growth incubated for 48 hrs by CCK-8 assay. In kind it is functional, cell-based. The following applies: NCI-H460, 48 h.
A further data set relates to SGC-7901. Put plainly: Antiproliferative activity against human SGC-7901 cells assessed as reduction in cell viability measured after 72 hrs by MTT assay. It is filed as functional, cell-based. Conditions: SGC-7901, 72 h.
A short description of data set [2]: Antiproliferative activity against human PaTu8988 cells assessed as reduction in cell viability measured after 72 hrs by MTT assay. It is filed as functional, cell-based. Conditions: PaTu8988, 72 h.
A further data set has as its system SMMC-7721. Put plainly: Antiproliferative activity against human SMMC-7721 cells assessed as reduction in cell viability measured after 72 hrs by MTT assay. In kind it is functional, cell-based. Conditions: SMMC-7721, 72 h.
Data set [3] deals with MCF7. Briefly: Cytotoxicity against human MCF7 cells assessed as reduction in cell growth measured after 48 hrs by MTT assay. In kind it is functional, cell-based. The following applies: MCF7, 48 h.
A short description of data set [4]: Cytotoxicity against human MRC5 cells assessed as reduction in cell growth measured after 48 hrs by MTT assay. In kind it is toxicity, cell-based.
Data set [5] is described as follows: Cytotoxicity against mouse HL-1 cells assessed as cell viability incubated for 24 hrs by CytoTox-Glo luminescence assay relative to control. It is filed as toxicity, cell-based.
For another data set, the system named is Plasmodium falciparum. Put plainly: Antiplasmodial activity against chloroquine-sensitive Plasmodium falciparum NF54 assessed as reduction in parasite growth. It is filed as functional, organism-based.
Data set [6] concerns Mycobacterium tuberculosis. Briefly: Antimycobacterial activity against Mycobacterium tuberculosis H37Rv assessed as inhibition of bacterial growth by microplate alamar blue assay. It is filed as functional.

Values after ≈ are worked out from the molar mass of the structure shown.

On to `N/C(=N\N=C\c1ccccc1)c1cnccn1`, for which the half-inhibitory concentration (IC50) with A549 amounted to 0.173 µg/mL (≈ 0.768 µM).

In the case of `C[C@@H]1[C@]2(O[C@H]3C=C4[C@@H]5CC[C@H]6Cc7nc8c(nc7C[C@]6(C)[C@H]5C[C@@H](O)[C@]4(C)[C@]31O)C[C@@H]1CC[C@H]3C4=CC[C@@H]5[C@H](C)[C@@]6(OC[C@]45C(=O)C[C@@H]3[C@@]1(C)C8)OC(C)(C)C[C@H]6O)O[C@](C)(CO)C[C@H]2O` [CEPHALOSTATIN 1], the IC50 in the data set on DU-145 was 0.11 nM; in the data set with MCF7 [1] it was 0.099 nM; in the data set with NCI-H460 it was 0.044 nM.

For `COc1cccc(/C=N/C(=O)c2cnccn2)c1O`, the IC50 (with SGC-7901; in [2]; in the data set with SMMC-7721) was 300 nM in each case.

Consider `C/C(=N\NC(=S)N1CCCCC1)c1cnccn1`, for which the 50% inhibitory concentration (IC50) in the data set with MCF7 [3] was 3.82 µM. The concentration for half-maximal inhibition (IC50) at 48 h in data set [4] is greater than 60 µM.

Regarding `S=C(N/N=C(\c1ccccc1)c1ccccn1)Nc1ccccc1`, in data set [5], the IC50 at 24 h was 1430 nM.

For `O=C(NCCNc1ccnc2cc(Cl)ccc12)c1cnccn1`, in the data set with Plasmodium falciparum, the IC50 was 647 nM. Further, the MIC99 in data set [6] was determined as 320 µM (≈ 105 µg/mL).
